Measurements: patent US20040198752A1, “Method for inhibiting retinoid skin damage” (priority 2001, published 2004)
Where two headings read alike, the source gives them in different places.

Legend:
[1] = 0.1, 0.5 and 1 mg/kg/day; cited from earlier work
[2] = system: human epidermal keratinocytes; assay: Proliferation assay, keratinocytes in monolayer culture; format: cell-based
Experimental: (§1) Normal human epidermal keratinocytes were obtained from skin biopsies and maintained in monolayer culture using Keratinocyte Growth Medium (KGM) (Clonetics, Inc., Walkersville, Md.). KGM contains the same basal medium as KBM, but is further supplemented with a mixture of growth factors including 0.1 ng/mL EGF, 0.5 μg/mL insulin, and 2% bovine pituitary extract. In some experiments, the HaCaT line of immortalized human epidermal keratinocytes (Boukamp P, Petrussevska R T, Breitkreutz D, Hornung J, Markham A, Fusenig N E. Normal keratinization in a spontaneously immortalized aneuploid human keratinocyte cell line. J Cell Biol, 1988;106:761-771) was used in place of normal keratinocytes. We (J.V., S.W.S., and J.T.E., unpublished observations) and others (Chaturvedi V, Qin J Z, Denning M F, Choubey D, Diaz M O, Nickoloff B J. Apoptosis in proliferating, senescent, and immortalized keratinocytes. J Biol Chem, 1999;274:23358-23367) have observed that HaCaT cells grow well in KGM. Therefore, HaCaT cells and NHK were propagated in exactly the same manner. Fibroblasts obtained from human skin were grown in monolayer culture using Dulbecco's modified minimal essential medium supplemented with nonessential amino acids and 10% fetal bovine serum (DMEM-FBS). Both keratinocytes and fibroblasts were maintained at 37° C. in an atmosphere of 95% air and 5% CO2. Cells were sub-cultured by exposure to trypsin/EDTA and used at passage 2-3.
For proliferation assays, cells were initially plated at 4×10^4 cells per well of a 24-well dish in growth medium (KGM for keratinocytes or DMEM-FBS for fibroblasts). After allowing cells to attach for 1 to 2 hours, the medium was removed and the cells washed twice in KBM (keratinocytes) or Ca^2+-supplemented KBM (fibroblasts). The cells were then incubated for 48 hours with or without additional reagents as indicated in Results. At the end of the incubation period, the cells were harvested by trypsinization and enumerated using an automated particle counter (Coulter Electronics, Hialeah, Fla.).

[3] = system: tyrosine kinases residing outside the c-erbB family; conditions: 1 μM; cited from earlier work
[4] = 51Cr-release cytotoxicity assay; format: cell-based, human; conditions: human, human epidermal keratinocytes; KBM + Ca2+; read-out: Cytotoxicity (ID50)
Experimental: (§2) A ^51Cr-release assay was used to measure cytotoxic effects of the irreversible c-erbB-RTK antagonist. For this assay, keratinocytes were initially plated at 2×10^4 cells per well of a 24-well dish in growth medium (KGM) and treated with 1 μCi per well of ^51Cr. After allowing cells to incorporate ^51Cr for one day, the non-incorporated isotope was removed and the cells washed twice in KBM. The cells were then incubated for 18 hours with or without treatments as indicated in Results. At the end of the incubation period, the percentage of Incorporated ^51Cr that was released into the culture medium was determined.

[5] = system: human epidermal keratinocytes; assay: 51Cr-release cytotoxicity assay; format: cell-based; conditions: for IC50: read-out: Cytotoxicity (ID50)
Experimental: as §2

[6] = system: organ-cultured human skin; assay: RA-induced epidermal hyperplasia in human skin organ culture; format: cell-based
Text: Immediately upon biopsy, the tissue was immersed in culture medium consisting of Keratinocyte Basal Medium (KBM) (Clonetics, Inc., Walkersville, Md.). KBM is a low-Ca^2+, serum-free modification of MCDB-153 medium optimized for high-density keratinocyte growth (Wille J, Jr., Pittelkow M R, Shipley G D, Scott R E. Integrated control of growth and differentiation of normal human prokeratinocytes cultured in serum-free medium: clonal analyses, growth kinetics, and cell cycle studies. J Cell Physiol 1984;121:31-44). It was supplemented with CaCl2 to bring the final Ca^2+ concentration to 1.4 mM. After transport to the laboratory on ice, the biopsies were incubated in a 96-well dish containing 200 μL of Ca^2+-supplemented KBM with or without additional treatments. Cultures were incubated at 37° C. in an atmosphere of 95% air and 5% CO2. Incubation was for 8 days, with change of medium containing the various treatments every 2 days. […] For the experiment shown in FIG. 4, human skin keratome biopsies were subjected to organ culture in the presence or absence of 3 μM RA followed by RNA isolation and Northern blotting as previously described (Stoll SW, Elder J T. Retinoid regulation of heparin-binding EGF-lke growth factor gene expression in human keratinocytes and skin. Exp Dermatol, 1998;7:391-397), except that the concentration of Ca^2+ was adjusted to 0.1 mM or 1.4 mM by the addition of CaCl2. cDNA insert probes for detection of HB-EGF and 36B4 were prepared and labeled by random priming, as previously described (Stoll and Elder, Supra., 1998).

HB-EGF mRNA = HB-EGF mRNA in human skin organ culture (Northern blotting); format: cell-based; conditions: 3 μM RA, 8 hours
Text: Immediately upon biopsy, the tissue was immersed in culture medium consisting of Keratinocyte Basal Medium (KBM) (Clonetics, Inc., Walkersville, Md.). KBM is a low-Ca^2+, serum-free modification of MCDB-153 medium optimized for high-density keratinocyte growth (Wille J, Jr., Pittelkow M R, Shipley G D, Scott R E. Integrated control of growth and differentiation of normal human prokeratinocytes cultured in serum-free medium: clonal analyses, growth kinetics, and cell cycle studies. J Cell Physiol 1984;121:31-44). It was supplemented with CaCl2 to bring the final Ca^2+ concentration to 1.4 mM. After transport to the laboratory on ice, the biopsies were incubated in a 96-well dish containing 200 μL of Ca^2+-supplemented KBM with or without additional treatments. Cultures were incubated at 37° C. in an atmosphere of 95% air and 5% CO2. Incubation was for 8 days, with change of medium containing the various treatments every 2 days. […]

human dermal fibroblasts = assay: RA-induced survival of dermal fibroblasts in low-Ca2+ monolayer culture; format: cell-based; conditions: 3 μM RA, 48 hours, KBM 0.15 mM CaCl2
Experimental: as §1, with “Cells were sub-cultured by exposure to trypsin/EDTA and used at passage 2-3.” left out

[7] = examined at 1 μM, 5 μM and 10 μM

Compound: CC1=C(/C=C/C(C)=C/C=C/C(C)=C\C(=O)O)C(C)(C)CCC1 [Accutane, 13-cis-retinoic acid]
- clearing of disease [1]: all dosages provided initial clearing of disease

Compound: C=CC(=O)Nc1cc2c(Nc3cccc(Br)c3)ncnc2cc1OCCCN1CCOCC1 [PD 169540, N-[4-(3-bromo-phenylamino)-7-(3-morpholin-4-yl-propoxy)-quinazolin-6-yl]-acrylamide]
- Inhibition of Growth (ID50) ([2]; +EGF): 6 nM
- Inhibition of Growth (ID50) ([2]; +insulin/pituitary extract): 900 nM
- Inhibition of Growth (ID50) ([2]; KBM + Ca2+): 8 nM
- relative potency, organ culture hyperplasia and monolayer proliferation ([2]; comparison of the two c-erbB-RTK antagonists): clearly the more potent compound in both assays
- effect on tyrosine kinases residing outside the c-erbB family [3]: without effect
- IC50 at 18 h [4]: > 1000 nM
- IC50 ([5]; +EGF): > 1000 nM
- IC50 ([5]; +insulin/pituitary extract): > 1000 nM
- cytotoxicity by 51Cr release ([5]; any of the concentrations tested): virtually no cytotoxicity
- reversal of RA-induced epidermal hyperplasia ([6]; 0.5 μM and 0.1 μM inhibitor, 3 μM RA): also effective, albeit less so than 1 μM
- reversal of RA-induced epidermal hyperplasia ([6]; 1 μM inhibitor, 3 μM RA): reversed the effects of 3 μM RA
- RA-stimulated epidermal thickness by keratinocyte counts (keratinocytes/block) ([6]; RA + inhibitor, FIG. 2): reduction in hyperplasia
- reversal of RA-induced epidermal hyperplasia ([6]; concentrations lower than 0.1 μM): no effect

Compound: CNc1cc2c(Nc3cccc(Br)c3)ncnc2cn1 [PD 158780, N^4-(3-Bromo-phenyl)-N^6-methyl-pyrido[3,4-d]pyrimidine-4,6-diamine]
- antiproliferative activity [6, 7]: detected only at 5 and 10 μM
- effects on RA-stimulated hyperplasia [6, 7]: reversed the effects of RA

Compound: CC1=C(/C=C/C(C)=C/C=C/C(C)=C/C(=O)O)C(C)(C)CCC1 [RA, all-trans retinoic acid, reference compound]
- HB-EGF mRNA induction (HB-EGF mRNA; 1.4 mM Ca2+): clearly dominant over the inhibitory effect of 1.4 mM Ca^2+
- HB-EGF mRNA induction (HB-EGF mRNA; low-Ca2+ (0.1 mM)): strongly potentiated
- fibroblast survival (human dermal fibroblasts): markedly and significantly promoted fibroblast survival
- number of Ki-67-positive cells ([6]; 3 μM RA, 8 days): much larger number of Ki-67-positive cells than did the controls
- epidermal thickness (number of epidermal keratinocytes) ([6]; 3 μM RA, 8 days, 1.4 mM Ca2+): The epidermis was thickened
- preservation of epithelial viability ([6]; RA added to low-Ca2+ organ cultures): up to 12 days
